Reference: patent US20240270762A1, “PENICILLIN-BINDING PROTEIN INHIBITORS” (priority 2021, published 2024)
pEC50: −log10 of the molar value. Converted amounts (≈) assume the structure as drawn.

How the values were obtained:
[1] = system: E. coli ATCC 25922; assay: microbe, parasite or virus in culture; format: cell-based; conditions: Escherichia coli, ATCC25922, read-out: MIC E. coli 25922
[2] = system: N. gonorrhoeae WHO G; assay: Liquid broth MIC in Fastidious broth; conditions: Neisseria gonorrhoeae, read-out: Minimum Inhibitory Concentration (MIC), N. gonorrhoeae WHO G
[3] = system: P. aeruginosa ATCC 27853; assay: microbe, parasite or virus in culture; format: cell-based; conditions: Pseudomonas aeruginosa, ATCC27853, read-out: MIC P. aeruginosa ATCC 27853
[4] = biological target: T1, PBP2 from Neisseria gonorrhoeae (FA19) (Neisseria gonorrhoeae, UniProt P08149); assay: Bocillin-FL fluorescence polarization competition binding, N. gonorrhoeae PBP2; conditions: fluorescence polarization competition binding assay using Bocillin-FL, read-out: N. gonorrhoeae PBP2 Potency
T1 construct: made in house
Excerpt: To determine the ability of boronic acid-based test PBP inhibitors to bind Penicillin Binding Proteins (PBPs), Bocillin-FL (fluorescently-labeled penicillin V; ThermoFisher Scientific) was used in a fluorescence polarization (FP) competition binding assay to assess inhibitor binding to PBP3 from Escherichia coli (K-12), PBP3 from Pseudomonas aeruginosa (PAO1), PBP1a and PBP3 from Acinetobacter baumannii (ATCC 19606), and PBP2 from Neisseria gonorrhoeae (FA19). PBPs were cloned and purified as described previously (E. coli PBP3, King, D. T, et al., ACS Infectious Diseases 2015, 1, 175-184; P. aeruginosa PBP3, Han et. al., PNAS 2010, 107 (51), 22002-22007; A. baumannii PBPs, Penwell et. al., Antimicrob. Agents Chemother. 2015, 59 (3), 1680-1689; N. gonorrhoeae PBP2, Singh et. al., J. Biol. Chem. 2019, 294 (38), 14020-14032). To establish assay conditions for competition binding, enzyme titration/saturation binding experiments were initially performed. Bocillin-FL was prepared at 0.2 μM in a buffer comprised of 50 mM Hepes (pH 8.0), 300 mM NaCl and 10% (v/v) glycerol for reactions with E. coli, P. aeruginosa and N. gonorrhoeae PBPs, and 25 mM Tris (pH 8.0), 200 mM NaCl, 10% (v/v) glycerol and 0.005% (v/v) Tween 20 for reactions with A. baumannii PBPs. Saturation binding was performed by mixing 40 μl of PBP solutions ranging in concentrations from 0-24 μM with 40 μl of the 0.2 μM Bocillin-FL solution, in individual wells of a black 384-well microplate. FP was measured immediately upon mixing (Excitation, 490 nm; Emission, 520 nm; g-factor, 0.96), using a Cytation3 (BioTek) microplate reader and measured continuously for up to 120 minutes. […] The competition binding assay (80 μl final volume) was validated using beta-lactams and PBPs at final concentrations of: 1.5 μM for E. coli PBP3; 0.75 μM for P. aeruginosa PBP3; 1 μM for A. baumannii PBP1a; 0.2 μM for A. baumannii PBP3; and 0.25 μM for N. gonorrhoeae PBP2. Bocillin-FL was at 0.1 μM (0.05 μM with A. baumannii PBP1a) and beta-lactam concentrations ranged from 0-1,000 μM. E. coli PBP3 was incubated with increasing concentrations of ampicillin in a black 384-well microplate (Corning) for 30 minutes. P. aeruginosa PBP3 was incubated for 15 minutes with aztreonam, whereas A. baumannii PBP1a and PBP3 were incubated for 15 minutes with meropenem, and then Bocillin-FL was added followed immediately by the FP measurement for up to 60 minutes. […] The beta-lactam potency was reported as the concentration of beta-lactam required to reduce the amount of PBP bound-Bocillin-FL by 50% (EC50). […] Binding assays for boronic acid PBP inhibitors were performed in an identical fashion for the respective PBPs.

[5] = system: K. pneumoniae UMM; assay: microbe, parasite or virus in culture; format: cell-based; conditions: Klebsiella pneumoniae, read-out: MIC K. pneumoniae UMM
[6] = system: N. gonorrhoeae CDC-0197; assay: Liquid broth MIC in Fastidious broth; conditions: Neisseria gonorrhoeae, CDC0197, read-out: Minimum Inhibitory Concentration (MIC), N. gonorrhoeae CDC-0197
[7] = system: N. gonorrhoeae MS11; assay: Liquid broth MIC in Fastidious broth; conditions: Neisseria gonorrhoeae, MS11, read-out: Minimum Inhibitory Concentration (MIC), N. gonorrhoeae MS11
[8] = system: E. coli D22; assay: microbe, parasite or virus in culture; format: cell-based; conditions: Escherichia coli, D22, read-out: MIC E. coli D22
[9] = system: N. gonorrhoeae WHO K; assay: Liquid broth MIC in Fastidious broth; conditions: Neisseria gonorrhoeae, read-out: Minimum Inhibitory Concentration (MIC), N. gonorrhoeae WHO K
Description: Liquid broth-based assays were used for antibacterial testing of PBP inhibitors in Neisseria gonorrhoeae. Briefly, cryo-preserved bacterial cultures of clinical strains were streaked for isolation on Chocolate Agar (72 g/L (2×) GC Agar Base (BD #228950) and 2% (2×) Hemoglobin was autoclaved at 121° C. for 20 minutes to sterilize. Once cooled to ˜50° C. the 2×GC Agar Base and 2× Hemoglobin solutions are combined and 1% IsoVitaleX Enrichment (BD #211876) was added to the solution). Strains were incubated at 36° C. and 5% CO2 to allow growth of colonies, 24 hours before inoculum preparation. 2-fold serial dilutions of test compounds were conducted in a 96 well plate with a final volume of 75 μL per well at 2-fold the final desired concentration in Fastidious broth (Remel #R07664). For preparation of assay inoculum, a direct suspension was prepared by aseptically swabbing 10-15 colonies from agar plates into culture tubes containing 2 mL of fresh sterile saline. After the dilution plates were set up, direct suspensions were then diluted in a cuvette containing sterile saline and the optical density was measured at 600 nm. Inocula were diluted such that 75 μL of this culture in Fastidious broth results in a starting bacterial concentration of 5×10^5 CFU/mL when added to the dilution plates. The plates were incubated for ˜24 hours at 36° C. and 5% CO2.

T1 sequence (P08149 whole entry): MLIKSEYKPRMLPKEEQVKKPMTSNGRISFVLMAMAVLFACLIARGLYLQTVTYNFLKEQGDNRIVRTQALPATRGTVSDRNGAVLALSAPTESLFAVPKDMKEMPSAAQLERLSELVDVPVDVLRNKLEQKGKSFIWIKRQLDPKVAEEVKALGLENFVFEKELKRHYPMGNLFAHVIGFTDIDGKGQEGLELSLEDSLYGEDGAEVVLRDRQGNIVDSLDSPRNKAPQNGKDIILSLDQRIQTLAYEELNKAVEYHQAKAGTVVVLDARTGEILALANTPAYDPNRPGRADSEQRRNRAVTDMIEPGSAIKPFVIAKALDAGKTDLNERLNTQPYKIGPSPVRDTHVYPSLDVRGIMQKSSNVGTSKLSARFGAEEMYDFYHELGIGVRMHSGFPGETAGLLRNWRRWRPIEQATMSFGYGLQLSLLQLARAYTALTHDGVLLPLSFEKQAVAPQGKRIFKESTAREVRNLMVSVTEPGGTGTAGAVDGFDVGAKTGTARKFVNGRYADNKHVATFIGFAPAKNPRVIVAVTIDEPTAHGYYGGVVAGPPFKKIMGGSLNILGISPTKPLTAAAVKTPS

| Structure (SMILES) | MIC [1] | MIC [2] | MIC [3] | pEC50 [4] | MIC [5] | MIC [6] | MIC [7] | MIC [8] | MIC [9] |
| --- | --- | --- | --- | --- | --- | --- | --- | --- | --- |
| NC(C(=O)N[C@H]1Cc2ccc(F)c(C(=O)O)c2OB1O)c1ccc(P(=O)(O)O)cc1 (stereo partly drawn) [Example 14, (3R)-3-(2-amino-2-(4-phosphonophenyl)acetamido)-7-fluoro-2-hydroxy-3,4-dihydro-2H-benzo[e][1,2]oxaborinine-8-carboxylic acid] | > 128 µg/mL | > 64 µg/mL | > 128 µg/mL | 3.60 to 4.30 | > 128 µg/mL | > 64 µg/mL | > 64 µg/mL | > 128 µg/mL | > 64 µg/mL |
| CS(=O)(=O)N1CCN(C(=O)N[C@@H](C(=O)N[C@H]2Cc3ccc(F)c(C(=O)O)c3OB2O)c2ccc(P(=O)(O)O)c(F)c2F)C1=O [Example 16, (R)-3-((R)-2-(2,3-difluoro-4-phosphonophenyl)-2-(3-(methylsulfonyl)-2-oxoimidazolidine-1-carboxamido)acetamido)-7-fluoro-2-hydroxy-3,4-dihydro-2H-benzo[e][1,2]oxaborinine-8-carboxylic acid] | > 128 µg/mL | < 1 µg/mL | > 128 µg/mL | > 5.00 | > 128 µg/mL | < 1 µg/mL | < 1 µg/mL | 8 to 16 µg/mL (≈ 12 to 24.1 µM) | < 1 µg/mL |
| CS(=O)(=O)N1CCN(C(=O)NC(C(=O)N[C@H]2Cc3cccc(C(=O)O)c3OB2O)c2ccc(P(=O)(O)O)c(O)c2)C1=O (stereo partly drawn) [Example 17, (3R)-2-hydroxy-3-(2-(3-hydroxy-4-phosphonophenyl)-2-(3-(methylsulfonyl)-2-oxoimidazolidine-1-carboxamido)acetamido)-3,4-dihydro-2H-benzo[e][1,2]oxaborinine-8-carboxylic acid] | 32 to 64 µg/mL (≈ 51.1 to 102 µM) | < 1 µg/mL | 32 to 64 µg/mL (≈ 51.1 to 102 µM) | > 5.00 | 32 to 64 µg/mL (≈ 51.1 to 102 µM) | < 1 µg/mL | < 1 µg/mL | 2 to 4 µg/mL (≈ 3.19 to 6.39 µM) | < 1 µg/mL |
| CCN1CCN(C(=O)NC(C(=O)N[C@H]2Cc3cccc(C(=O)O)c3OB2O)c2ccc(CP(=O)(O)O)cc2)C(=O)C1=O (stereo partly drawn) [Example 20, (3R)-3-(2-(4-ethyl-2,3-dioxopiperazine-1-carboxamido)-2-(4-(phosphonomethyl)phenyl)acetamido)-2-hydroxy-3,4-dihydro-2H-benzo[e][1,2]oxaborinine-8-carboxylic acid] | 8 to 16 µg/mL (≈ 13.3 to 26.6 µM) | < 1 µg/mL | > 128 µg/mL | > 5.00 | 32 to 64 µg/mL (≈ 53.1 to 106 µM) | < 1 µg/mL | < 1 µg/mL | 2 to 4 µg/mL (≈ 3.32 to 6.64 µM) | 1 to 2 µg/mL (≈ 1.66 to 3.32 µM) |
| CCN1CCN(C(=O)NC(C(=O)N[C@H]2Cc3cccc(C(=O)O)c3OB2O)c2ccc(P(=O)(O)O)c(O)c2)C(=O)C1=O (stereo partly drawn) [Example 21, (3R)-3-(2-(4-ethyl-2,3-dioxopiperazine-1-carboxamido)-2-(3-hydroxy-4-phosphonophenyl)acetamido)-2-hydroxy-3,4-dihydro-2H-benzo[e][1,2]oxaborinine-8-carboxylic acid] | 8 to 16 µg/mL (≈ 13.2 to 26.5 µM) | < 1 µg/mL | 8 to 16 µg/mL (≈ 13.2 to 26.5 µM) | > 5.00 | 8 to 16 µg/mL (≈ 13.2 to 26.5 µM) | < 1 µg/mL | < 1 µg/mL | 2 to 4 µg/mL (≈ 3.31 to 6.62 µM) | < 1 µg/mL |
| CCN1CCN(C(=O)NC(C(=O)N[C@H]2Cc3cccc(C(=O)O)c3OB2O)c2cccc(CP(=O)(O)O)c2)C(=O)C1=O (stereo partly drawn) [Example 22, (3R)-3-(2-(4-ethyl-2,3-dioxopiperazine-1-carboxamido)-2-(3-(phosphonomethyl)phenyl)acetamido)-2-hydroxy-3,4-dihydro-2H-benzo[e][1,2]oxaborinine-8-carboxylic acid] | 32 to 64 µg/mL (≈ 53.1 to 106 µM) | < 1 µg/mL | > 128 µg/mL | > 5.00 | 32 to 64 µg/mL (≈ 53.1 to 106 µM) | 1 to 2 µg/mL (≈ 1.66 to 3.32 µM) | 1 to 2 µg/mL (≈ 1.66 to 3.32 µM) | 2 to 4 µg/mL (≈ 3.32 to 6.64 µM) | 4 to 8 µg/mL (≈ 6.64 to 13.3 µM) |
